Measured values published in a melting point compilation (Tetko et al.; mined from patent text by program, amines drawn as free bases though some values may be those of a salt).

SMILES | melting point [°C]
NC(=O)N1c2ccccc2C(Br)C(Br)c2ccccc21 (stereo not given) | 144
N#Cc1ncn2c1[C@@H]1CCCN1C(=O)c1cc(F)ccc1-2 | 254 to 256
COCC1CCCN(c2ccnc3sc(C(N)=O)c(N)c23)C1 (stereo not given) | 229 to 230
O=C(O)c1ccc(-c2ccc3cc(OCc4ccc(F)cc4)c(C45CC6CC(CC(C6)C4)C5)cc3c2)cc1O | 240 to 241
C=CC(=O)Nc1ccc2ncnc(Nc3cccc(C)c3)c2c1 | 247 to 248
CCn1nc(C)c(N)c1C | 69 to 70
Cc1cc(-c2c(O)c(=O)c2=O)c2c(C)ccc(C(C)C)cc1-2 | 120 to 123
CN(C)CCCN=C1CC(c2ccc(C(F)(F)F)cc2)Cc2[nH]c3ccc(Cl)cc3c(=O)c21 (stereo not given) | 211 to 213
Cc1nc2c(CN3CCOCC3)cc(Cl)nn2c1C(=O)c1ccc(Cl)cc1F | 145 to 147
COCCn1nc2c(N)nc3ccccc3c2c1CC(C)(C)N | 199 to 200
Oc1cc(C(F)(F)F)nn1-c1ccc(Cl)cn1 | 58 to 59
O=C(O)CCCCCOc1ccc(C2OC3C(CO)OC(n4ccc(=O)[nH]c4=O)C3O2)cc1 (stereo not given) | 158 to 160
COc1ccc(N2CC(=O)N(C)C(=O)N2)cc1 | 179 to 181
FC(F)(F)C1(c2cc(Cl)cc(Cl)c2)CC(c2ccc(-n3cccn3)cc2)=NO1 (stereo not given) | 174 to 175
C=C1[C@@H](NC(=O)C(F)(F)F)CC(O)O[C@H]1C (stereo not given in full) | 168 to 170
CCCCCCCCOC(=O)NCCC(=O)O | 70 to 72
CCOCc1nc2c(N)nc3c(c2n1NCCCNC(=O)C(C)C)CCCC3 | 163 to 165
CC(CO)(CO)Nc1nc(SCc2cccc(F)c2F)nc2nc(N)cnc12 | 220 to 227
O=C(O)c1cccnc1C(=O)c1ccccc1 | 115 to 121
Cn1ncnc1COc1nn2c(-c3ccoc3)nncc2c1-c1ccccc1F | 148
Nc1nc(NCCO)nc(N2CCOCC2)n1 | 159 to 161
CS(=O)(=O)Nc1cc(O)c2c(c1)C(=O)c1cccc(O)c1C2=O | > 300
CCCOc1ccnc2[nH]cc(C(C)=O)c12 | > 210
CC1(C)N=C(Oc2ccccn2)c2cc(F)ccc2O1 | 114
CC(C)(C)CNc1nc(NC(C)(C)C)cc(N2CCNCC2)n1 | 146 to 148

Results, then the compound that gave them:

melting point [°C] | SMILES
204 to 205 | O=C(Nc1ccc(F)cn1)c1cc(-c2ccc(Cl)c(Cl)c2)nc2ccccc12
201 to 205 | COc1ccc(S(=O)(=O)Nc2c(Cl)cccc2Cl)c2c1[nH]c1ccccc12
192 to 194 | OCc1ccc(OCc2ccccc2)c2ncccc12
209 | COc1ccc(Nc2nc(N)nc3[nH]c4ccccc4c23)cc1
154 to 155 | O=C(Cc1cccc(O)c1)NNC(=O)c1c(OCc2ccccc2)cc(OCc2ccccc2)cc1OCc1ccccc1
290 to 292 | O=c1cc(-c2ccc3ccccc3c2)[nH]c2ccccc12
202 to 203 | COc1cc(OC)c(-c2cc3ccccc3n2C)cc1C=CC(=O)c1ccc(S(=O)(=O)NCc2cccnc2)cc1
114 to 116 | CC(=O)c1cn(C(=O)OC(C)(C)C)c2ccc(OCc3ccccc3)cc12
143 to 145 | C(=Cc1ccc2ccccc2c1)c1ccccc1
226 to 229 | CN1CCN(C(=O)c2ccc(-n3nc(-c4ccccc4O)nc3-c3ccccc3O)cc2)CC1
80 to 82 | CC(C)(C)OC(=O)NCC(=O)Nc1ccccc1OCc1ccccc1
190 to 192 | Cn1cc(-c2ccccc2)c(=O)c(-c2ccc(F)cc2Cl)c1
262 to 263 | O=C(NCc1ccncc1)c1cc(-n2cnn(Cc3ccc(F)cc3)c2=O)n[nH]1
161 to 163 | COc1ccc(-c2ocnc2-c2cc(OC)c(O)c(OC)c2)cc1F
206 to 207 | COC(=O)c1ccc(-c2nc(-c3ccc(Br)cc3)cs2)cc1
